Data on 14 compounds can be found in PubChem BioAssay (NCI).

Among the test systems are HCT-15 colon; A549 NSCLC; SF-268 CNS; UACC-257 melanoma; SK-MEL-28 melanoma; HS 578T breast; MDA-N; NCI-H23 lung; OVCAR-4 ovarian; UACC-62 melanoma.
Common to all, as to assay: DTP human tumour cell line panel, 48 h

Each structure is given as a SMILES string.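 Dose response: 5 concentrations. Exposure: 48 h. Format: 96-well plates. Endpoint: linear interpolation; highest concentration if not reached. Here, GI50 denotes the concentration required for 50% inhibition of growth. TGI denotes the concentration required for complete inhibition of growth.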 Where only a bound is given, the exact number is not on record here.

Regarding `Cc1ccc(/C=C2/N=C(N/N=C\c3ccccc3)NC2=O)cc1`, the TGI with HCT-15 colon was over 100 µM; in the test on A549 NSCLC, over 100 µM; in the test with SF-268 CNS, over 100 µM; in the test with UACC-257 melanoma it was over 100 µM; with SK-MEL-28 melanoma it was over 100 µM; with HS 578T breast, 85.3 µM. Also, the figures for the total growth inhibition concentration (TGI) with MDA-N, with NCI-H23 lung and in the test on OVCAR-4 ovarian were 88.2 µM, over 100 µM and 55.1 µM, respectively.

As for `CC(C)C(NC(=O)C(Cc1ccccc1)NC(=O)[C@H]1CCC[C@H]1NC(=O)C(Cc1ccc(OC(C)(C)C)cc1)NC(=O)OC(C)(C)C)C(N)=O` (stereo not given in full), the concentration for total growth inhibition (TGI) is 40.5 µM in the test with UACC-62 melanoma; over 100 µM in the test on HCT-15 colon; 45.5 µM in the test on A549 NSCLC; 70 µM with SF-268 CNS; 40 µM in the test with SK-MEL-28 melanoma; 35 µM with MDA-N. In addition, the values for the TGI with NCI-H23 lung and in the test on OVCAR-4 ovarian were 35.7 µM and 65.4 µM, respectively.

Regarding `CC(=O)OCC1OC(n2c(-c3ccccc3)c(N=Nc3ccc(C)cc3)c(C)c(C#N)c2=S)C(OC(C)=O)C(OC(C)=O)C1OC(C)=O` (stereo not given), the TGI in the test with HCT-15 colon was 86.6 µM; in the test on A549 NSCLC, 47 µM; with SF-268 CNS, 76.6 µM; in the test with UACC-257 melanoma, over 100 µM; with SK-MEL-28 melanoma, 94.4 µM; with MDA-N, 74.9 µM. In addition, the TGI in the test on NCI-H23 lung is 42.1 µM; in the test with OVCAR-4 ovarian, 25.1 µM.

Take `CC1(C)CC(=O)C2=C(C1)OC1(CC2c2ccc(Cl)cc2)CC(c2ccc(Cl)cc2)C2=C(CC(C)(C)CC2=O)O1` (stereo not given): the concentration for total growth inhibition (TGI) is over 53.5 µM with UACC-62 melanoma; over 100 µM in the test on HCT-15 colon; 30.9 µM with A549 NSCLC; 42 µM with SF-268 CNS; over 61.7 µM in the test on UACC-257 melanoma; 34 µM with SK-MEL-28 melanoma. The TGI turned out to be 36.1 µM in the test with HS 578T breast, 34.9 µM in the test with NCI-H23 lung and 30.6 µM in the test on OVCAR-4 ovarian.

Regarding `CN1CCC2(CC1)C(=NC1CCCCC1)NC(=O)N2c1ccccc1`, the TGI in the test on UACC-62 melanoma, in the test with HCT-15 colon, in the test on A549 NSCLC, in the test on SF-268 CNS, in the test on UACC-257 melanoma and with SK-MEL-28 melanoma was over 100 µM each time. For the same compound, the TGI in the test with HS 578T breast and in the test on NCI-H23 lung was over 100 µM each time.

Turning to `C=C(C)[C@@H]1CC[C@]2(CO)CC[C@]3(C)[C@H](CC[C@@H]4[C@@]5(C)CC[C@H](NCO)C(C)(C)[C@@H]5CC[C@]43C)[C@@H]12`, the GI50 in the test with UACC-62 melanoma was 918 nM; with A549 NSCLC it was 885 nM; with SF-268 CNS, 944 nM; with UACC-257 melanoma it was 935 nM; with SK-MEL-28 melanoma it was 894 nM; with NCI-H23 lung it was 869 nM. In addition, the GI50 in the test with OVCAR-4 ovarian was 827 nM. In addition, the total growth inhibition concentration (TGI) with UACC-62 melanoma worked out at 1.63 µM; with A549 NSCLC it was 1.73 µM; in the test on SF-268 CNS, 1.92 µM; in the test on UACC-257 melanoma it was 1.91 µM; in the test with SK-MEL-28 melanoma, 1.61 µM; in the test on NCI-H23 lung, 1.67 µM. The compound also yielded a TGI in the test on OVCAR-4 ovarian of 1.59 µM.

`O=c1[nH]nc(-c2ccccc2)n1-n1cnnc1`: the total growth inhibition concentration (TGI) in the test with UACC-62 melanoma, in the test with HCT-15 colon, in the test on A549 NSCLC, with SF-268 CNS, with UACC-257 melanoma and with HS 578T breast was over 100 µM in each case. The TGI in the test with MDA-N, in the test with NCI-H23 lung and in the test with OVCAR-4 ovarian was over 100 µM each time.

For `CCOC(=O)C(C)N1C(=O)c2ccccc2S1(=O)=O` (stereo not given), the TGI in the test with UACC-62 melanoma, with HCT-15 colon, in the test on A549 NSCLC, in the test on SF-268 CNS, in the test with UACC-257 melanoma and in the test with SK-MEL-28 melanoma was over 100 µM each time. Also, the TGI in the test on NCI-H23 lung and in the test with OVCAR-4 ovarian was over 100 µM each time.

`CCNC(=S)N/N=C(\C)c1cccc(C)n1`: the TGI was 41.3 µM in the test with UACC-62 melanoma; over 100 µM in the test with HCT-15 colon; over 100 µM in the test with A549 NSCLC; 17.2 µM in the test on SF-268 CNS; over 100 µM with UACC-257 melanoma; over 100 µM with SK-MEL-28 melanoma. Also, the TGI with HS 578T breast, with MDA-N and with NCI-H23 lung was over 100 µM each time.

For `c1cc2c(cc1C1=NCCN1)c1cc(C3=NCCN3)ccc1n2CC1CCCCC1`, the total growth inhibition concentration (TGI) was over 100 µM with HCT-15 colon; over 100 µM in the test with A549 NSCLC; 22.2 µM in the test on SF-268 CNS; 59.3 µM in the test on UACC-257 melanoma; 26.7 µM in the test with SK-MEL-28 melanoma; 32 µM with HS 578T breast. The total growth inhibition concentration (TGI) with MDA-N was over 100 µM; in the test on NCI-H23 lung, 88.9 µM; in the test with OVCAR-4 ovarian it was over 100 µM.

Regarding `S=c1nc[nH]c2c1ncn2C1CCCO1` (stereo not given), the TGI with UACC-62 melanoma, in the test on HCT-15 colon, with A549 NSCLC, in the test on SF-268 CNS, with SK-MEL-28 melanoma and with NCI-H23 lung was over 100 µM throughout. The compound also displayed a TGI with OVCAR-4 ovarian of over 100 µM.

`NN/C(=N\S(=O)(=O)c1ccc(S(=O)(=O)c2ccccc2)s1)Nc1ccc(Cl)cc1`: the total growth inhibition concentration (TGI) was 33.5 µM in the test on UACC-62 melanoma; over 100 µM in the test with HCT-15 colon; over 100 µM in the test on A549 NSCLC; 67.5 µM with UACC-257 melanoma; over 100 µM in the test with SK-MEL-28 melanoma; 41.8 µM with MDA-N. Besides, the TGI in the test with NCI-H23 lung is 80 µM; with OVCAR-4 ovarian it was over 100 µM.

As for `C=C(C)[C@@H]1CC[C@]2(C(=O)NC(C)=O)CC[C@]3(C)[C@H](CC[C@@H]4[C@@]5(C)CCCNC(C)(C)[C@@H]5CC[C@]43C)[C@@H]12`, the GI50 was 1730 nM with UACC-62 melanoma; 1520 nM in the test with HCT-15 colon; 1610 nM in the test with A549 NSCLC; 1690 nM in the test with SF-268 CNS; 1950 nM in the test with UACC-257 melanoma; 1660 nM in the test on SK-MEL-28 melanoma. In addition, the results for the GI50 in the test on NCI-H23 lung and in the test with OVCAR-4 ovarian were 1760 nM and 1510 nM, respectively. In addition, the TGI in the test with UACC-62 melanoma is 3.11 µM; with HCT-15 colon it was 2.97 µM; in the test on A549 NSCLC it was 3.33 µM; with SF-268 CNS it was 3.25 µM; in the test with UACC-257 melanoma, 3.75 µM; in the test with SK-MEL-28 melanoma, 3.04 µM. Also, the total growth inhibition concentration (TGI) in the test on NCI-H23 lung stood at 3.51 µM; in the test on OVCAR-4 ovarian, 3.23 µM.

For `CN(C)CN(C)c1nc(N(C)C)nc(N(C)CN(C)C)n1`, the TGI in the test on UACC-62 melanoma was 40.9 µM; with HCT-15 colon, 68.2 µM; with A549 NSCLC it was over 100 µM; in the test with SF-268 CNS, over 100 µM; with UACC-257 melanoma it was over 100 µM; in the test on SK-MEL-28 melanoma it was 83.6 µM. Also, the TGI in the test with NCI-H23 lung is 95.8 µM; in the test on OVCAR-4 ovarian, over 100 µM.
